According to US9499535B2, “Kinase inhibitors” (ORIGENIS GMBH, priority 2011, dated 2016):

Assays:
[1] = biological target: T1, SYK kinase (Homo sapiens, UniProt P43405); assay: SYK assay (OMNIA Kinase Assay, Invitrogen); type: biochemical; conditions: apparent Ki calculated from the IC50 using the Cheng-Prusoff equation; 1 mM ATP, 10 μM Peptide Substrate; read-out: SYK Activities: Ki
T1 construct: purchased Invitrogen, Carlsbad
How it was run: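 Continuous SOX-fluorescence (Omnia) readout of Tyr 7 peptide (10 μM) phosphorylation with 1 mM ATP and 0.2 mM DTT at 30° C, started by SYK addition. Fluorescence (λex 360/λem 485 nm) was read every 30 s for 30 min. IC50 from velocity vs concentration; apparent Ki via Cheng-Prusoff.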

[2] = biological target: LRRK2 (Homo sapiens, UniProt Q5S007); assay: LRRK2 assay (LanthaScreen Eu Kinase Binding Assay); conditions: 5 nM LRRK2, 10 nM tracer 236, RT 1 h; read-out: LRRK2 Activites: IC50
Chain of LRRK2 (Q5S007 970-2527 limits assumed): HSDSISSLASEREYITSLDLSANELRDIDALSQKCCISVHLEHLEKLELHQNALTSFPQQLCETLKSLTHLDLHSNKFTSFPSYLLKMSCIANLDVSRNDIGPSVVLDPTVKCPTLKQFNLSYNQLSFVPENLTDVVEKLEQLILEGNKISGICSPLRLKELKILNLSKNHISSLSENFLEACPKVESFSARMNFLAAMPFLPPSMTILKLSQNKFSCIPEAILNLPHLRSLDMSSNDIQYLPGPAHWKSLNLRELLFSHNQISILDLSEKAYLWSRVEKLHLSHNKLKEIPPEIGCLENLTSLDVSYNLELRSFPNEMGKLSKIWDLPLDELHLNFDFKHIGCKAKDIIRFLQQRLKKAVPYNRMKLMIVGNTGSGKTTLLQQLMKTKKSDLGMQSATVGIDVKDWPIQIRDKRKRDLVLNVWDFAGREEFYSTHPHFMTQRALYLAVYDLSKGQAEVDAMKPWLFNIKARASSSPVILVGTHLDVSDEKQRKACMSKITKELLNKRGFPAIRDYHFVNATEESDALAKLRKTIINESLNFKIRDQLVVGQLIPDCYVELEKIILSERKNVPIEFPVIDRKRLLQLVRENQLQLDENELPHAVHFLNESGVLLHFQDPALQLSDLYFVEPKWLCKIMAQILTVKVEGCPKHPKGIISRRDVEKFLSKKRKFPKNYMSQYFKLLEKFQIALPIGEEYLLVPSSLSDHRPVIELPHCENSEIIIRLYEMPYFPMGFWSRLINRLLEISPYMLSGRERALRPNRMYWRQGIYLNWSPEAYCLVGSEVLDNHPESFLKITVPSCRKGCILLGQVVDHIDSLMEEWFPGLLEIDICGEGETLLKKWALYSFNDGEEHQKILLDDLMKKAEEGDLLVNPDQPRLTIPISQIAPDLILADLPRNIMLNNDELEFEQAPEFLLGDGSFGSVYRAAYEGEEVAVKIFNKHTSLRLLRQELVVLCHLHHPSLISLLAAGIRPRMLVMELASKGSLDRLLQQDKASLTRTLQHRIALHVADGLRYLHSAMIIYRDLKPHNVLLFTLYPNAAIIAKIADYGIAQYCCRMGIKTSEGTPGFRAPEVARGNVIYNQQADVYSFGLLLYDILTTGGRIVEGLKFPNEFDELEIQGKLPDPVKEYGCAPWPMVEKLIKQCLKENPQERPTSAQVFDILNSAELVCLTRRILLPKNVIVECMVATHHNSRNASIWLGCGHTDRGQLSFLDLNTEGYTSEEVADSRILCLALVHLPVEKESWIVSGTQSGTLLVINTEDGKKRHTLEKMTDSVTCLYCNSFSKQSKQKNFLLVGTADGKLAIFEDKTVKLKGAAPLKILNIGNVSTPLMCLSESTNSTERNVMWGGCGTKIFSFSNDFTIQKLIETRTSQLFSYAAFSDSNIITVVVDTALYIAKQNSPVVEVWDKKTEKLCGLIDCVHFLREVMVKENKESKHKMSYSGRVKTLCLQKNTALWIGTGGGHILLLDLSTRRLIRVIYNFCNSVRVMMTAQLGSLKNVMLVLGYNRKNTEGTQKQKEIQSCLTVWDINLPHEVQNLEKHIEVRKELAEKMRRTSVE
How it was run: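 Kinase binding was detected by europium anti-tag antibody FRET with a competing tracer, so inhibitor binding lowers the FRET signal. IC50 came from a variable-slope sigmoidal fit of emission ratio against inhibitor concentration.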

[3] = biological target: MYLK (Homo sapiens, UniProt Q15746); assay: MYLK assay (LanthaScreen Eu Kinase Binding Assay); conditions: 5 nM MYLK, 30 nM tracer 236, RT 1 h; read-out: MYLK Activites: IC50
Chain of MYLK (Q15746 whole entry): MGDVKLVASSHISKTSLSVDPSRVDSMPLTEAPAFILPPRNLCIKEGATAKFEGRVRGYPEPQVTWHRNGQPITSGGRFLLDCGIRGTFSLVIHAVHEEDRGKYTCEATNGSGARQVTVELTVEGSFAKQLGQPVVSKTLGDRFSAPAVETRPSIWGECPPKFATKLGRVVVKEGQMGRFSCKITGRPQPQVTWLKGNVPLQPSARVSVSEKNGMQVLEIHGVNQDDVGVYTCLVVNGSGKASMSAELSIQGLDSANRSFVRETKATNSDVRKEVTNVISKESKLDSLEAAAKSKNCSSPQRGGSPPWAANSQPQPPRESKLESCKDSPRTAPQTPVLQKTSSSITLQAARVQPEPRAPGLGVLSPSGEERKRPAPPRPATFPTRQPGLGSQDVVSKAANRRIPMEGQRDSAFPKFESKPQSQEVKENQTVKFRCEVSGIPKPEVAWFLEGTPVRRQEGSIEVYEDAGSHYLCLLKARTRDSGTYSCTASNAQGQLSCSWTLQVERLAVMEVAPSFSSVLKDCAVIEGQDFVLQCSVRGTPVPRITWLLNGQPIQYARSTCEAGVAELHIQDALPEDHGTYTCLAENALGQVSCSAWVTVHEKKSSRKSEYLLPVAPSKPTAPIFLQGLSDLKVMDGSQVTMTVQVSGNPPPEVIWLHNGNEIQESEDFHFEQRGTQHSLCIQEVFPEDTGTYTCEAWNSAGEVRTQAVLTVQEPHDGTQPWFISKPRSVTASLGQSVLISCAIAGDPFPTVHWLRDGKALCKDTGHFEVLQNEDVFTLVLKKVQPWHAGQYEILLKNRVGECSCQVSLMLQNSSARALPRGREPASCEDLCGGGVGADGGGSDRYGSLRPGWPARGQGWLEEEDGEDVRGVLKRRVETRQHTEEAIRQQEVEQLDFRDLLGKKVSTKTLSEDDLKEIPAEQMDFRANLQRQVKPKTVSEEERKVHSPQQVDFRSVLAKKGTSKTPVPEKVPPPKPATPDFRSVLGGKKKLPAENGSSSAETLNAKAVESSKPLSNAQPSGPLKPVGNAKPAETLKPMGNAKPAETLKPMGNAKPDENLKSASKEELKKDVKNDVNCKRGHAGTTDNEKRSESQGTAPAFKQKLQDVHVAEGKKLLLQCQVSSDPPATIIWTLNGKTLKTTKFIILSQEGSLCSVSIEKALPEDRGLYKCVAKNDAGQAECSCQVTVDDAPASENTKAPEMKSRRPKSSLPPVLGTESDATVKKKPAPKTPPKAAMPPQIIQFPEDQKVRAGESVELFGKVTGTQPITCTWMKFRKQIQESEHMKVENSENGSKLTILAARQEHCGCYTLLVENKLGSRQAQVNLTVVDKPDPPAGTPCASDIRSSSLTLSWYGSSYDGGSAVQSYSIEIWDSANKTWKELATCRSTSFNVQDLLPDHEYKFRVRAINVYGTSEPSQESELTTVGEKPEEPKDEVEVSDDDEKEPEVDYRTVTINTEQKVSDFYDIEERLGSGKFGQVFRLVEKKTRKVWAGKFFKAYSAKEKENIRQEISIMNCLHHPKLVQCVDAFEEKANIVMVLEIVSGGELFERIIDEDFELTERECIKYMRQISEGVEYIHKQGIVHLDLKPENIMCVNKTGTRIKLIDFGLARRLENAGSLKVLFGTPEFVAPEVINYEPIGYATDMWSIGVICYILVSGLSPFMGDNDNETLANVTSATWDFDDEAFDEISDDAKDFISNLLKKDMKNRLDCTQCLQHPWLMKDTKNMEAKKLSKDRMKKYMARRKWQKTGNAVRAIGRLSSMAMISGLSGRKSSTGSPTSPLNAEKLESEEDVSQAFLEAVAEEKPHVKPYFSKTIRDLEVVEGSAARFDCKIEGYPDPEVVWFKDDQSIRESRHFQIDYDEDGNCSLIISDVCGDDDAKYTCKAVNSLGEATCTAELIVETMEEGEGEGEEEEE
Procedure: In the assay LanthaScreen™ Eu Kinase Binding Assay by Invitrogen Corporation (Carlsbad) the effect of invention of a compound on the phosphorylation is determined by measurement of fluorescence intensity emission ratio based on the binding and displacement of a proprietary, Alexa Fluor® 647-labeled, ATP-competitive kinase inhibitor scaffold (kinase tracer) to the kinase of interest as described above.
To the wells of an 384 well small volume plate (Greiner, Frickenhausen) are added (i) the compound under test in 5% DMSO/distilled water (5 μl), (ii) 5 μl of the kinase antibody mixture resulting in a final concentration 5 nM MYLK, 2 nM EU-Anti-GST antibody in 1× kinase buffer A. The reaction was started with addition of (iii) 5 μl resulting in a final concentration of 30 nM tracer 236. The assay plate was incubated at RT for 1 h and fluorescence intensitiy readings were collected using a TECAN M1000 at two wavelengthes of λex 340/λem 615 nm and λex 340/λem 665 nm with a delay time of 100 μs and an integration time of 200 μs after 60 minutes. The emission ratio was calculated by division of the acceptor/tracer emission ([…]) by the antibody/donor emission ([…]). The inhibitor concentration was plotted versus the emission ratio to determine the IC50 using XLFit 5.0 (IDBS, Guildford) to fit to a sigmoidal dose response curve with a variable slope.

Ki [1]	IC50 [2]	IC50 [3]	SMILES
10 to 100 nM	100 to 1000 nM	< 5000 nM	COc1cc2nc(Nc3ccc4cn[nH]c4c3)c3n[nH]cc3c2cc1OC [Example #136, (7,8-Dimethoxy-2H-pyrazolo[3,4-c]quinolin-4-yl)-(1H-indazol-6-yl)-amine]
10 to 100 nM	100 to 1000 nM	< 5000 nM	COc1ccc2nc(Nc3cn[nH]c3)c3[nH]ncc3c2c1 [Example #121, (8-Methoxy-3H-pyrazolo[3,4-c]quinolin-4-yl)-(1H-pyrazol-4-yl)-amine]
10 to 100 nM	100 to 1000 nM	< 5000 nM	COc1ccc2nc(Nc3ccc4c(c3)nc3n4CCN(C)C3)c3n[nH]cc3c2c1 [Example #160, (8-Methoxy-2H-pyrazolo[3,4-c]quinolin-4-yl)-(2-methyl-1,2,3,4-tetrahydro-benzo[4,5]imidazo[1,2-a]pyrazin-8-yl)-amine]
100 to 1000 nM	100 to 1000 nM	< 5000 nM	COc1ccc2nc(Nc3cccc(C(=N)N)c3)c3n[nH]cc3c2c1 [Example #49, 3-(8-Methoxy-2H-pyrazolo[3,4-c]quinolin-4-ylamino)-benzamidine]
< 10 nM	100 to 1000 nM	< 5000 nM	CN1CCN(c2ccc(Nc3nc4ccc(I)cc4c4cn[nH]c34)cc2)CC1 [Example #333, 8-iodo-N-(4-(4-methylpiperazin-1-yl)phenyl)-3H-pyrazolo[3,4-c]quinolin-4-amine]
10 to 100 nM	100 to 1000 nM	< 5000 nM	COc1ccc2nc(Nc3ccc(CN(C)C)cc3)c3n[nH]cc3c2c1 [Example #185, (4-Dimethylaminomethyl-phenyl)-(8-methoxy-2H-pyrazolo[3,4-c]quinolin-4-yl)-amine]
10 to 100 nM	100 to 1000 nM	< 5000 nM	COc1ccc2nc(Nc3ccc4[nH]c(=O)[nH]c4c3)c3n[nH]cc3c2c1 [Example #71, 5-(8-Methoxy-2H-pyrazolo[3,4-c]quinolin-4-ylamino)-1,3-dihydro-benzoimidazol-2-one]
< 10 nM	10 to 100 nM	< 5000 nM	COc1cccc2c1nc(Nc1cc(C3CC3)[nH]n1)c1n[nH]cc12 [Example #169, (5-Cyclopropyl-1H-pyrazol-3-yl)-(6-methoxy-2H-pyrazolo[3,4-c]quinolin-4-yl)-amine]
10 to 100 nM	10 to 100 nM	< 5000 nM	COc1cccc2nc(Nc3ccc(N4CCOCC4)cc3)c3n[nH]cc3c12 [Example #202, (9-Methoxy-2H-pyrazolo[3,4-c]quinolin-4-yl)-(4-morpholin-4-yl-phenyl)-amine]
10 to 100 nM	100 to 1000 nM	< 5000 nM	COc1ccc2c(c1)nc(Nc1ccc3cn[nH]c3c1)c1n[nH]cc12 [Example #172, (1H-Indazol-6-yl)-(7-methoxy-2H-pyrazolo[3,4-c]quinolin-4-yl)-amine]
10 to 100 nM	100 to 1000 nM	< 5000 nM	COc1ccc2nc(Nc3ccc(C4CCN(C)CC4)cc3)c3n[nH]cc3c2c1 [Example #102, (8-Methoxy-2H-pyrazolo[3,4-c]quinolin-4-yl)-[4-(1-methyl-piperidin-4-yl)-phenyl]-amine]
100 to 1000 nM	100 to 1000 nM	< 5000 nM	COc1ccc2nc(Nc3cccc(OCCN4CCNCC4)c3)c3n[nH]cc3c2c1 [Example #229, (8-Methoxy-2H-pyrazolo[3,4-c]quinolin-4-yl)-[3-(2-piperazin-1-yl-ethoxy)-phenyl]-amine]
10 to 100 nM	100 to 1000 nM	< 5000 nM	COc1ccc2c(c1)nc(Nc1ccc3[nH]c(C)nc3c1)c1n[nH]cc12 [Example #264, (7-Methoxy-2H-pyrazolo[3,4-c]quinolin-4-yl)-(2-methyl-1H-benzoimidazol-5-yl)-amine]
100 to 1000 nM	100 to 1000 nM	< 5000 nM	COc1ccc2nc(Nc3ccc4ncn(C)c4c3)c3n[nH]cc3c2c1 [Example #148, (8-Methoxy-2H-pyrazolo[3,4-c]quinolin-4-yl)-(3-methyl-3H-benzoimidazol-5-yl)-amine]
10 to 100 nM	100 to 1000 nM	< 5000 nM	COc1cccc2nc(Nc3ccc(N4CCN(C5CC5)CC4)cc3)c3n[nH]cc3c12 [Example #243, [4-(4-cyclopropyl-piperazin-1-yl)-phenyl]-(9-methoxy-2H-pyrazolo[3,4-c]quinolin-4-yl)-amine]
10 to 100 nM	10 to 100 nM	< 5000 nM	CCN1CCN(c2ccc(Nc3nc4ccc(OC)cc4c4c[nH]nc34)cc2F)CC1 [Example #240, [4-(4-ethyl-piperazin-1-yl)-3-fluorophenyl]-(8-methoxy-2H-pyrazolo[3,4-c]quinolin-4-yl)-amine]
< 10 nM	100 to 1000 nM	< 5000 nM	COc1ccc2nc(Nc3ccc(N4CCNCC4)cc3)c3n[nH]cc3c2c1 [Example #184, (8-Methoxy-2H-pyrazolo[3,4-c]quinolin-4-yl)-(4-piperazin-1-yl-phenyl)-amine]
10 to 100 nM	100 to 1000 nM	< 5000 nM	COc1ccc2nc(Nc3ccc(O)c(O)c3)c3n[nH]cc3c2c1 [Example #162, 4-(8-Methoxy-2H-pyrazolo[3,4-c]quinolin-4-ylamino)-benzene-1,2-diol]
10 to 100 nM	100 to 1000 nM	< 5000 nM	COc1ccc2nc(Nc3ccc(CN)cc3)c3[nH]ncc3c2c1 [Example #73, (4-Aminomethyl-phenyl)-(8-methoxy-3H-pyrazolo[3,4-c]quinolin-4-yl)-amine]
10 to 100 nM	100 to 1000 nM	< 5000 nM	COc1ccc2nc(Nc3ccc(N4CCN(C)CC4)c(Cl)c3)c3n[nH]cc3c2c1 [Example #195, [3-Chloro-4-(4-methyl-piperazin-1-yl)-phenyl]-(8-methoxy-2H-pyrazolo[3,4-c]quinolin-4-yl)-amine]
10 to 100 nM	10 to 100 nM	< 5000 nM	COc1cccc2nc(Nc3ccc(CN(C)C)cc3)c3[nH]ncc3c12 [Example #353, N-(4-((dimethylamino)methyl)phenyl)-9-methoxy-3H-pyrazolo[3,4-c]quinolin-4-amine]
100 to 1000 nM	100 to 1000 nM	< 5000 nM	COc1ccc2nc(Nc3ccc4c(c3)ncn4C)c3n[nH]cc3c2c1 [Example #126, (8-Methoxy-2H-pyrazolo[3,4-c]quinolin-4-yl)-(1-methyl-1H-benzoimidazol-5-yl)-amine]
10 to 100 nM	10 to 100 nM	< 5000 nM	COc1ccc2nc(Nc3ccc(CN4CCOCC4)cc3)c3n[nH]cc3c2c1 [Example #237, (8-Methoxy-2H-pyrazolo[3,4-c]quinolin-4-yl)-(4-morpholin-4-ylmethyl-phenyl)-amine]
100 to 1000 nM	100 to 1000 nM	< 5000 nM	COc1ccc2nc(Nc3cccc(S(C)(=O)=O)c3)c3n[nH]cc3c2c1 [Example #320, 8-methoxy-N-(3-(methylsulfonyl)phenyl)-2H-pyrazolo[3,4-c]quinolin-4-amine]
10 to 100 nM	< 10 nM	< 5000 nM	COc1ccc2nc(Nc3ccc4cc(C(=O)O)ccc4c3)c3n[nH]cc3c2c1 [Example #286, 6-((8-methoxy-2H-pyrazolo[3,4-c]quinolin-4-yl)amino)-2-naphthoic acid]
100 to 1000 nM	100 to 1000 nM	< 5000 nM	COc1cccc2c1nc(Nc1ccc3c(c1)OCCO3)c1n[nH]cc12 [Example #258, (2,3-Dihydro-benzo[1,4]dioxin-6-yl)-(6-methoxy-2H-pyrazolo[3,4-c]quinolin-4-yl)-amine]
10 to 100 nM	10 to 100 nM	< 5000 nM	COc1ccc2nc(Nc3ccc(N4CCN(C)CC4)c(C)c3)c3n[nH]cc3c2c1 [Example #183, (8-Methoxy-2H-pyrazolo[3,4-c]quinolin-4-yl)-[3-methyl-4-(4-methyl-piperazin-1-yl)-phenyl]-amine]
< 10 nM	100 to 1000 nM	< 5000 nM	COc1ccc2c(c1)nc(Nc1ccc3c(c1)NC(=O)CCC3)c1n[nH]cc12 [Example #257, 8-((7-methoxy-2H-pyrazolo[3,4-c]quinolin-4-yl)amino)-4,5-dihydro-1H-benzo[b]azepin-2(3H)-one]
< 10 nM	100 to 1000 nM	< 5000 nM	COc1ccc2nc(Nc3cc(OC)c(OC)c(OC)c3)c3n[nH]cc3c2c1 [Example #67, (8-Methoxy-2H-pyrazolo[3,4-c]quinolin-4-yl)-(3,4,5-trimethoxy-phenyl)-amine]
